This is an account of results in PubChem BioAssay (NCI).

Where “and” joins values, the source holds several entries; their conditions need not be identical. Identical values can stand only once.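 Interpolation was linear, between the two tested concentrations surrounding the appropriate level; five concentrations were tested over 48 hours in 96-well plates. GI50: concentration for 50% inhibition of growth. TGI: concentration producing complete growth inhibition.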

Some test systems named below: MOLT-4 leukemia; RPMI-8226 leukemia; RXF 393 renal; SF-539 CNS; SK-MEL-28 melanoma; SNB-75 CNS; SNB-78 CNS; TK-10 renal; U251 CNS; UACC-257 melanoma.
Holding throughout (test): NCI anticancer screen, dose series, 48 h

As for `C=C1C(=O)OC2/C=C(\CO)C(OC(C)=O)CC(O)/C(C)=C/C(OC(=O)C(C)CC)C12` (stereo not drawn), the GI50 with MOLT-4 leukemia was 11 µM and 22.6 µM; in the experiment on RPMI-8226 leukemia, 5.57 µM and 24.9 µM. The TGI was 28.2 µM and 64.3 µM with MOLT-4 leukemia; 23.4 µM and 56.3 µM in the experiment with RPMI-8226 leukemia; 40 µM and 49.8 µM in the experiment with RXF 393 renal; 37.9 µM and 66 µM in the experiment with SF-539 CNS; 32.3 µM and 70.1 µM with SK-MEL-28 melanoma; 69.3 µM and 96.3 µM in the experiment with SNB-75 CNS. The TGI with SNB-78 CNS is 42.9 µM; in the experiment with TK-10 renal, 36 µM and 38.7 µM; with U251 CNS, > 91.6 µM and 66.3 µM; in the experiment on UACC-257 melanoma it was 28.9 µM and 38.5 µM.
On to `COCOc1ccc(OC)cc1`, for which the TGI in the experiment on MOLT-4 leukemia, with RPMI-8226 leukemia, in the experiment on RXF 393 renal, with SF-539 CNS, in the experiment with SK-MEL-28 melanoma and in the experiment with SNB-75 CNS was > 100 µM in each case. The TGI with SNB-78 CNS, in the experiment with U251 CNS and with UACC-257 melanoma was > 100 µM each time.
Regarding `C/C(=C\c1ccccc1)C(=O)CCN1CCOCC1`, the TGI was > 62.3 µM in the experiment with MOLT-4 leukemia; 20.6 µM with RPMI-8226 leukemia; 35.2 µM in the experiment on RXF 393 renal; 34.6 µM with SF-539 CNS; 35.4 µM in the experiment with SK-MEL-28 melanoma; > 66.1 µM in the experiment on SNB-75 CNS. In addition, the TGI in the experiment on SNB-78 CNS is 35.4 µM; with U251 CNS it was 30.7 µM; in the experiment on UACC-257 melanoma it was 30.6 µM.
With `CSC1CC2C(CC1(C)O)C2(C)C` (stereo not drawn), the GI50 in the experiment on MOLT-4 leukemia was > 100 µM; in the experiment with RXF 393 renal, 29.6 µM and > 100 µM; in the experiment on SNB-75 CNS, > 100 µM and 47.9 µM; in the experiment on UACC-257 melanoma it was 40.8 µM and > 100 µM. Moreover, the TGI in the experiment with MOLT-4 leukemia, with RPMI-8226 leukemia, in the experiment on RXF 393 renal, in the experiment on SF-539 CNS, with SK-MEL-28 melanoma and in the experiment with SNB-75 CNS was > 100 µM each time. Also, the TGI in the experiment with SNB-78 CNS, in the experiment with TK-10 renal, in the experiment with U251 CNS and with UACC-257 melanoma was > 100 µM throughout.
`CCOC(=O)C1=C(C(C)=O)CSC(c2ccccc2)=N1`: the TGI in the experiment on MOLT-4 leukemia, in the experiment on RPMI-8226 leukemia, in the experiment with RXF 393 renal, in the experiment with SF-539 CNS, in the experiment on SK-MEL-28 melanoma and in the experiment with SNB-75 CNS was > 100 µM throughout. Moreover, the TGI in the experiment on SNB-78 CNS, in the experiment with U251 CNS and with UACC-257 melanoma was > 100 µM in each case.
Regarding `CCC(C(=O)O)c1ccc(OCc2ccccc2)cc1` (stereo not drawn), the TGI in the experiment on MOLT-4 leukemia, with RPMI-8226 leukemia, in the experiment with RXF 393 renal, with SF-539 CNS, in the experiment with SK-MEL-28 melanoma and in the experiment on SNB-75 CNS was > 100 µM in each case. The TGI with SNB-78 CNS, in the experiment with TK-10 renal, with U251 CNS and in the experiment on UACC-257 melanoma was > 100 µM each time.
